Experimental data taken from patent US12552804B2, “Tricyclic heterocycles as FGFR inhibitors” (Incyte Corporation, priority 2019, dated 2026).

What follows are molecules tested against wild-type un-phosphorylated FGFR3 protein (Homo sapiens, UniProt P22607) (assay: FGFR Enzymatic Assay (FRET detection of peptide phosphorylation)). Settings: pre-incubated for 4 hours, read-out: FGFR3_Ki.
Format: biochemical
Protocol: The inhibitor potency of the exemplified compounds was determined in an enzyme discontinuous assay that measures peptide phosphorylation using FRET measurements to detect product formation. Inhibitors were serially diluted in DMSO and a volume of 0.2 μL was transferred to the wells of a 384-well plate. A 5 μL/well volume of enzyme isoforms of FGFR (−1, −2, −3 wild-type and mutant isoforms, −4) including phosphorylated and un-phosphorylated proteins diluted in assay buffer (50 mM HEPES, 10 mM MgCl2, 1 mM EGTA, 0.01% Tween-20, 5 mM DTT, pH 7.5) was added to the plate and pre-incubated with inhibitor for 5 to 15 minutes at ambient temperature. Appropriate controls (enzyme blank and enzyme with no inhibitor) were included on the plate. […] The ATP Km values were pre-determined in a separate series of experiments. The reaction plate was incubated at 25° C. for 1 hr and the reactions were ended with the addition of 5 μL/well of quench solution (50 mM Tris, 150 mM NaCl, 0.5 mg/mL BSA, pH 7.8; 45 mM EDTA, 600 nM staurosporin, with Perkin Elmer Lance Reagents at 3.75 nM Eu-antibody PY20 and 180 nM APC-Streptavidin). The plate was allowed to equilibrate for ˜10 minutes at ambient temperature before scanning on a PheraStar plate reader (BMG Labtech) instrument.
Either GraphPad prism or XLfit was used to analyze the data. The IC50 values were derived by fitting the data to a four parameter logistic equation producing a sigmoidal dose-response curve with a variable Hill coefficient. Prism equation: Y=Bottom+(Top−Bottom)/(1+10^((LogIC50−X)*Hill slope)); XLfit equation: Y=(A+((B−A)/(1+((X/C)^D)))) where X is the logarithm of inhibitor concentration and Y is the response.
The data in Table 1 was measured in wild-type un-phosphorylated FGFR3 protein.

Sequence of wild-type un-phosphorylated FGFR3 protein (P22607 23-806): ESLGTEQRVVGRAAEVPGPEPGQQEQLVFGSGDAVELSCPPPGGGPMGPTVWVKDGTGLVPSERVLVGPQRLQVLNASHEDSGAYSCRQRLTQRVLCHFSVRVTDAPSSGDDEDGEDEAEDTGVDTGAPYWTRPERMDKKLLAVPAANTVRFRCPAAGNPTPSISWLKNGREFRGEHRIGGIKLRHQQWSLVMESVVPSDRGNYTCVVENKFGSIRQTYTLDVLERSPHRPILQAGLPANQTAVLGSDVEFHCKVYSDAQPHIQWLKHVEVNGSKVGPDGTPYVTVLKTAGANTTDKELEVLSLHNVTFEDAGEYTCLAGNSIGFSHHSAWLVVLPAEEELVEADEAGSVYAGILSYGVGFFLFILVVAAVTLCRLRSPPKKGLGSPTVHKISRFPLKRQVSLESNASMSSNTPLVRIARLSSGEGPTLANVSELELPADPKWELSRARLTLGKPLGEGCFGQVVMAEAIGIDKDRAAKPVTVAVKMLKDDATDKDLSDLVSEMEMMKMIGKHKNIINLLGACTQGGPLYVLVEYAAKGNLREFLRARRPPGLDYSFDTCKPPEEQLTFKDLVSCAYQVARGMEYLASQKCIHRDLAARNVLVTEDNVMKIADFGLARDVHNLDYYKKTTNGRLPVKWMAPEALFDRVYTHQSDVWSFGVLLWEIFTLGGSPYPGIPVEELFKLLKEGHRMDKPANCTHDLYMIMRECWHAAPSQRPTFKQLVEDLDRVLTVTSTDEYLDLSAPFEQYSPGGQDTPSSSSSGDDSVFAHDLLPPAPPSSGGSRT

Ki	SMILES
< 10 nM	CN(C)C(=O)N1CCC(n2cc(-c3cnc4ccn5cc(-c6c(Cl)cccc6Cl)nc5c4c3)cn2)C1 (stereo not shown) [Example 50, 3-(4-(2-(2,6-Dichlorophenyl)imidazo[2,1-f][1,6]naphthyridin-9-yl)-1H-pyrazol-1-yl)-N,N-dimethylpyrrolidine-1-carboxamide]
< 10 nM	CN(C)S(=O)(=O)N1CCC(n2cc(-c3cnc4ccn5cc(-c6c(Cl)cccc6Cl)nc5c4c3)cn2)C1 (stereo not shown) [Example 51, 3-(4-(2-(2,6-Dichlorophenyl)imidazo[2,1-f][1,6]naphthyridin-9-yl)-1H-pyrazol-1-yl)-N,N-dimethylpyrrolidine-1-sulfonamide]
< 10 nM	CC(=O)N1CC[C@H](n2cc(-c3cnc4ccn5c(C)c(-c6c(Cl)cccc6Cl)nc5c4c3)cn2)C1 [Example 52, (S)-1-(3-(4-(2-(2,6-Dichlorophenyl)-3-methylimidazo[2,1-f][1,6]naphthyridin-9-yl)-1H-pyrazol-1-yl)pyrrolidin-1-yl)ethan-1-one]
< 10 nM	Cc1c(-c2c(Cl)cccc2Cl)nc2c3cc(-c4cnn([C@H]5CCN(C(=O)CO)C5)c4)cnc3ccn12 [Example 53, (S)-1-(3-(4-(2-(2,6-Dichlorophenyl)-3-methylimidazo[2,1-f][1,6]naphthyridin-9-yl)-1H-pyrazol-1-yl)pyrrolidin-1-yl)-2-hydroxyethan-1-one]
< 10 nM	Cc1c(-c2c(Cl)cccc2Cl)nc2c3cc(-c4cnn(C56CC5CN(C(=O)CO)C6)c4)cnc3ccn12 (stereo not shown) [Example 54, 1-(1-(4-(2-(2,6-Dichlorophenyl)-3-methylimidazo[2,1-f][1,6]naphthyridin-9-yl)-1H-pyrazol-1-yl)-3-azabicyclo[3.1.0]hexan-3-yl)-2-hydroxyethan-1-one]
< 10 nM	O=C(CO)N1CC[C@H](n2cc(-c3cnc4ccn5c(CO)c(-c6c(Cl)cccc6Cl)nc5c4c3)cn2)C1 [Example 55, (S)-1-(3-(4-(2-(2,6-Dichlorophenyl)-3-(hydroxymethyl)imidazo[2,1-f][1,6]naphthyridin-9-yl)-1H-pyrazol-1-yl)pyrrolidin-1-yl)-2-hydroxyethan-1-one]
< 10 nM	CC(=O)N1CC[C@H](n2cc(-c3cnc4ccn5c(CO)c(-c6c(Cl)cccc6Cl)nc5c4c3)cn2)C1 [Example 56, (S)-1-(3-(4-(2-(2,6-Dichlorophenyl)-3-(hydroxymethyl)imidazo[2,1-f][1,6]naphthyridin-9-yl)-1H-pyrazol-1-yl)pyrrolidin-1-yl)ethan-1-one]
< 10 nM	O=C(N1CCOCC1)N1CC[C@H](n2cc(-c3cnc4ccn5c(CO)c(-c6c(Cl)cccc6Cl)nc5c4c3)cn2)C1 [Example 57, (S)-(3-(4-(2-(2,6-Dichlorophenyl)-3-(hydroxymethyl)imidazo[2,1-f][1,6]naphthyridin-9-yl)-1H-pyrazol-1-yl)pyrrolidin-1-yl)(morpholino)methanone]
< 10 nM	CC(O)c1c(-c2c(Cl)cccc2Cl)nc2c3cc(-c4cnn([C@H]5CCN(C(=O)CO)C5)c4)cnc3ccn12 (stereo partly drawn) [Example 58, 1-((3S)-3-(4-(2-(2,6-dichlorophenyl)-3-(1-hydroxyethyl)imidazo[2,1-f][1,6]naphthyridin-9-yl)-1H-pyrazol-1-yl)pyrrolidin-1-yl)-2-hydroxyethan-1-one]
< 10 nM	Cc1c(-c2c(Cl)cccc2Cl)nc2c3cc(-c4cnn(C56CCN(C(=O)CO)CC5C6)c4)cnc3ccn12 (stereo not shown) [Example 59, 1-(6-(4-(2-(2,6-Dichlorophenyl)-3-methylimidazo[2,1-f][1,6]naphthyridin-9-yl)-1H-pyrazol-1-yl)-3-azabicyclo[4.1.0]heptan-3-yl)-2-hydroxyethan-1-one]
< 10 nM	CC(=O)N1CCC2CC2(n2cc(-c3cnc4ccn5c(C)c(-c6c(Cl)cccc6Cl)nc5c4c3)cn2)C1 (stereo not shown) [Example 60, 1-(1-(4-(2-(2,6-Dichlorophenyl)-3-methylimidazo[2,1-f][1,6]naphthyridin-9-yl)-1H-pyrazol-1-yl)-3-azabicyclo[4.1.0]heptan-3-yl)ethan-1-one]
10 to 100 nM	Cc1c(-c2c(Cl)cccc2Cl)nc2c3cc(-c4ccc(C5CN(C(=O)CO)C5)nc4)cnc3ccn12 [Example 61, 1-(3-(5-(2-(2,6-Dichlorophenyl)-3-methylimidazo[2,1-f][1,6]naphthyridin-9-yl)pyridin-2-yl)azetidin-1-yl)-2-hydroxyethan-1-one]
10 to 100 nM	CC(=O)N1CC(c2cncc(-c3cnc4ccn5c(C)c(-c6c(Cl)cccc6Cl)nc5c4c3)c2)C1 [Example 62, 1-(3-(5-(2-(2,6-Dichlorophenyl)-3-methylimidazo[2,1-f][1,6]naphthyridin-9-yl)pyridin-3-yl)azetidin-1-yl)ethan-1-one]
< 10 nM	CC(=O)N1CC(c2ccc(-c3cnc4ccn5c(C)c(-c6c(Cl)cccc6Cl)nc5c4c3)cc2)C1 [Example 63]
< 10 nM	CC(=O)N1CC[C@H](n2cc(-c3cnc4ccn5c(CO)c(-c6ccccc6Cl)nc5c4c3)cn2)C1 [Example 64, (S)-1-(3-(4-(2-(2-Chlorophenyl)-3-(hydroxymethyl)imidazo[2,1-f][1,6]naphthyridin-9-yl)-1H-pyrazol-1-yl)pyrrolidin-1-yl)ethan-1-one]
10 to 100 nM	CC(C)c1c(-c2ccccc2Cl)nc2c3cc(-c4cnn([C@H]5CCN(C(=O)CO)C5)c4)cnc3ccn12 [Example 65, (S)-1-(3-(4-(2-(2-Chlorophenyl)-3-isopropylimidazo[2,1-f][1,6]naphthyridin-9-yl)-1H-pyrazol-1-yl)pyrrolidin-1-yl)-2-hydroxyethan-1-one]
< 10 nM	O=C(CO)N1CC[C@H](n2cc(-c3cnc4ccn5c(Br)c(-c6c(F)cccc6Cl)nc5c4c3)cn2)C1 [Example 66, (S)-1-(3-(4-(3-Bromo-2-(2-chloro-6-fluorophenyl)imidazo[2,1-f][1,6]naphthyridin-9-yl)-1H-pyrazol-1-yl)pyrrolidin-1-yl)-2-hydroxyethan-1-one]
100 to 400 nM	Cc1c(C2CC2)nc2c3cc(-c4cnn(C)c4)cnc3ccn12 [Example 67, 2-Cyclopropyl-3-methyl-9-(1-methyl-1H-pyrazol-4-yl)imidazo[2,1-f][1,6]naphthyridine]
< 10 nM	Cn1cc(-c2cnc3ccn4c(CO)c(-c5c(Cl)cccc5Cl)nc4c3c2)cn1 [Example 68, (2-(2,6-Dichlorophenyl)-9-(1-methyl-1H-pyrazol-4-yl)imidazo[2,1-f][1,6]naphthyridin-3-yl)methanol]
< 10 nM	OCc1c(-c2c(Cl)cccc2Cl)nc2c3cc(-c4cnn(C5CC5)c4)cnc3ccn12 [Example 69, (9-(1-Cyclopropyl-1H-pyrazol-4-yl)-2-(2,6-dichlorophenyl)imidazo[2,1-f][1,6]naphthyridin-3-yl)methanol]
< 10 nM	OCc1c(-c2c(Cl)cccc2Cl)nc2c3cc(-c4cnn(C5CCOC5)c4)cnc3ccn12 (stereo not shown) [Example 70, (2-(2,6-Dichlorophenyl)-9-(1-(tetrahydrofuran-3-yl)-1H-pyrazol-4-yl)imidazo[2,1-f][1,6]naphthyridin-3-yl)methanol]
< 10 nM	OCc1c(-c2c(Cl)cccc2Cl)nc2c3cc(-c4cnn(C5COC5)c4)cnc3ccn12 [Example 71, (2-(2,6-Dichlorophenyl)-9-(1-(oxetan-3-yl)-1H-pyrazol-4-yl)imidazo[2,1-f][1,6]naphthyridin-3-yl)methanol]
< 10 nM	CN(C)CCn1cc(-c2cnc3ccn4c(CO)c(-c5c(Cl)cccc5Cl)nc4c3c2)cn1 [Example 72, (2-(2,6-Dichlorophenyl)-9-(1-(2-(dimethylamino)ethyl)-1H-pyrazol-4-yl)imidazo[2,1-f][1,6]naphthyridin-3-yl)methanol]
< 10 nM	CC(C)n1cc(-c2cnc3ccn4c(CO)c(-c5c(Cl)cccc5Cl)nc4c3c2)cn1 [Example 73, (2-(2,6-Dichlorophenyl)-9-(1-isopropyl-1H-pyrazol-4-yl)imidazo[2,1-f][1,6]naphthyridin-3-yl)methanol]
< 10 nM	OCc1c(-c2c(Cl)cccc2Cl)nc2c3cc(-c4cnn(C(F)F)c4)cnc3ccn12 [Example 74, (2-(2,6-Dichlorophenyl)-9-(1-(difluoromethyl)-1H-pyrazol-4-yl)imidazo[2,1-f][1,6]naphthyridin-3-yl)methanol]
< 10 nM	N#CCCn1cc(-c2cnc3ccn4c(CO)c(-c5c(Cl)cccc5Cl)nc4c3c2)cn1 [Example 75, 3-(4-(2-(2,6-Dichlorophenyl)-3-(hydroxymethyl)imidazo[2,1-f][1,6]naphthyridin-9-yl)-1H-pyrazol-1-yl)propanenitrile]
< 10 nM	CC(C)(O)Cn1cc(-c2cnc3ccn4c(CO)c(-c5c(Cl)cccc5Cl)nc4c3c2)cn1 [Example 76, 1-(4-(2-(2,6-Dichlorophenyl)-3-(hydroxymethyl)imidazo[2,1-f][1,6]naphthyridin-9-yl)-1H-pyrazol-1-yl)-2-methylpropan-2-ol]
< 10 nM	N#CCn1cc(-c2cnc3ccn4c(CO)c(-c5c(Cl)cccc5Cl)nc4c3c2)cn1 [Example 77, 2-(4-(2-(2,6-Dichlorophenyl)-3-(hydroxymethyl)imidazo[2,1-f][1,6]naphthyridin-9-yl)-1H-pyrazol-1-yl)acetonitrile]
